What was measured:
Assay type in all cases: in vivo
[1] = system: Housefly [Musca domestica]; experiment: Housefly contact mortality in dishes (HF), 48 hours; details: μg of test compound per 25 female flies
Procedure, shortened: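 Dose range started at 100 μg per 25 female flies and went downward. Insects (1-2 days old) contacted a dried acetone/peanut-oil deposit in dishes; LC50 values come from dosage-mortality curves at 48 h.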

[2] = system: Black Bean Aphid [Aphis fabae (Scop.)]; experiment: Black bean aphid spray test on nasturtium (BBA), 48 hours; details: percent of test compound in sprayed solution
Procedure, shortened: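 LC50, given as percent test compound in the sprayed liquid, was calculated from dosage-mortality curves using concentrations from 0.05% downward. Sprays in 50:50 acetone-water went to runoff on ~5 cm nasturtiums carrying 25-50 aphids of mixed ages, one day after infestation. Deaths were counted 48 h later under greenhouse conditions.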

[3] = system: Tobacco Budworm [Heliothis virescens (Fabricius)] larvae; experiment: Tobacco budworm larvae, contact (TBW-C), 5 days; details: percent in solution, second-instar larvae
Protocol: The compounds in Tables 1 and 2 above were tested for insecticidal activity using the following testing procedures. LC50 values, based on the results of these tests and calculated according to dosage-mortality curves, are expressed in Table 3.
Tobacco Budworm [Heliothis virescens (Fabricius)]:
(a) Contact: Test compounds were diluted in a 50-50 acetone-water solution. Cotton (Gossypium sp.) cotyledons were immersed in the test solutions for 2-3 seconds and placed on a wire screen to dry. The dried leaves were placed in petri dishes containing a moistened piece of filter paper and infested with 5 second-instar tobacco budworm larvae. The dishes were placed in a high humidity chamber for 5 days, and percent mortality of the larvae recorded. Test concentrations ranged from 0.1% downward. The LC-50 values are expressed below in Table 3 under the heading "TBW-C" in terms of percent of the test compound in the solution.

[4] = system: Tobacco Budworm [Heliothis virescens (Fabricius)] eggs; experiment: Tobacco budworm eggs (TBW-E); details: percent in solution; 2-day old eggs
Procedure, shortened: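 LC50 values (percent test compound in the dip solution) were calculated from dosage-mortality curves. Egg patches, 2 days old, were dipped in acetone solutions at concentrations from 0.1% downward and held at 78° F on rearing medium until control larvae hatched and fed.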

[5] = system: Cabbage Looper [Trichoplusia ni (Hubner)]; experiment: Cabbage looper leaf dip (CL), 3-5 days; details: percent in solution, second-instar larvae
Procedure, shortened: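 Leaf dip, squash cotyledons, 50-50 acetone-water, top dose 0.1% and lower. 5 second-instar larvae/dish, moist filter paper, high-humidity chamber. Mortality at 3-5 d; LC50 (% in solution) from dosage-mortality curves.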

[6] = system: Aster Leafhopper [Macrosteles fascifrens (Stal)]; experiment: Aster leafhopper on dipped oat seedlings (LH), 48 hours; details: percent in solution, adults/nymphs
Procedure, shortened: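 Three ~10 cm oat seedlings per cup were dipped 2-3 seconds in 50-50 acetone-water compound solutions, dried, and caged with ten adult/nymph leafhoppers. Mortality was counted after 48 hours at concentrations from 0.05% downward. LC50, as percent compound in solution, came from dosage-mortality curves.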

[7] = system: Maize weevil [Sitophilus zeamais (Motschulsky)]; experiment: Maize weevil on dipped corn seeds (MW), 48 hours; details: percent in solution, adult weevils
Procedure, shortened: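 LC50, given as percent of compound in dipping solution, comes from dosage-mortality curves over concentrations descending from 0.01%. Four corn seeds soaked 2-3 s in 50:50 acetone:water solution were dried and held with 10 adult weevils, about 25° C, mortality read after 48 h.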

SMILES	LC50 HF [1]	LC50 BBA [2]	LC50 TBW C (contact) [3]	LC50 TBW E (eggs) [4]	LC50 CL [5]	LC50 LH [6]	LC50 MW [7]
ClC(Cl)C(=Nc1ccccc1)OCc1cccc(Oc2ccccc2)c1 [Compound 41]	4.5 µg	0.001%	0.0035%	0.04%	0.015%	–	–
Fc1ccc(N=C(OCc2cccc(Oc3ccccc3)c2)C(Cl)Cl)cc1 [Compound 44]	3 µg	0.0006%	< 0.1%	0.06%	–	–	–
CC(C)C(=Nc1c(F)c(F)c(F)c(F)c1F)OCc1cccc(Oc2ccccc2)c1 [Compound 51]	25 µg	0.01%	0.0025%	0.067%	0.001%	0.001%	–
Cc1c(F)cccc1N=C(OCc1cccc(Oc2ccccc2)c1)C(C)C [Compound 73]	25 µg	0.003%	0.005%	0.025%	0.004%	–	–
Cc1ccc(F)cc1N=C(OCc1cccc(Oc2ccccc2)c1)C(C)C [Compound 74]	25 µg	0.001%	0.0025%	0.025%	0.005%	–	–
Cc1ccc(N=C(OCc2cccc(Oc3ccccc3)c2)C(C)C)cc1F [Compound 75]	5 µg	0.0006%	0.0075%	0.01%	0.0025%	0.0008%	–
COc1ccc(N=C(OCc2cccc(Oc3ccccc3)c2)C(C)C)cc1Cl [Compound 95]	10 µg	0.001%	0.004%	0.025%	0.0025%	–	–
Cc1cc(Cl)ccc1N=C(OCc1cccc(Oc2ccccc2)c1)C(C)C [Compound 96]	35 µg	0.002%	0.0025%	0.025%	0.003%	–	–
CCOc1ccc(N=C(OCc2cccc(Oc3ccccc3)c2)C(Cl)Cl)cc1 [Compound 138]	19 µg	0.003%	0.015%	0.08%	0.005%	–	> 0.01%
CC(C)(C)c1ccc(N=C(OCc2cccc(Oc3ccccc3)c2)C(Cl)Cl)cc1 [Compound 140]	> 100 µg	0.05%	> 0.1%	> 0.1%	< 0.1%	–	–
COc1ccc(N=C(OCc2cccc(Oc3ccccc3)c2)C(C)C)c(OC)c1 [Compound 146]	40 µg	0.05%	0.025%	> 0.1%	0.017%	–	–
CC(=O)c1ccc(N=C(OCc2cccc(Oc3ccccc3)c2)C(C)C)cc1 [Compound 147]	10 µg	0.03%	0.0075%	> 0.1%	0.01%	–	–
CC(C)C(=Nc1cc(F)cc(F)c1)OCc1cccc(Oc2ccc(F)cc2)c1 [Compound 199]	8 µg	–	0.003%	> 0.1%	0.0006%	–	> 0.01%
CC(C)(C)C(=Nc1ccc(F)c(Cl)c1)OCc1cccc(Oc2ccc(F)cc2)c1 [Compound 204]	> 100 µg	–	0.004%	> 0.1%	0.0023%	–	> 0.01%
CCC(C)C(=Nc1ccc(F)c(Cl)c1)OCc1cccc(Oc2ccc(F)cc2)c1 (centres unmarked) [Compound 210]	35 µg	0.01%	0.0015%	0.045%	0.00028%	–	> 0.01%
CC(C)C(=Nc1ccc2c(c1)OC(C)(C)O2)OCc1cccc(Oc2ccc(F)cc2)c1 [Compound 219]	50 µg	0.003%	0.004%	0.027%	0.00025%	–	> 0.01%
CC(C)C(=Nc1cccc(C(F)(F)F)c1)OCc1ccc(F)c(Oc2ccc(Cl)cc2)c1 [Compound 266]	10 µg	> 0.05%	0.0007%	0.06%	0.00016%	–	–
C=C(C)C(=Nc1ccc(C(F)(F)F)cc1)OCc1ccc(F)c(Oc2ccc(Cl)cc2)c1 [Compound 432]	< 100 µg	0.001%	< 0.1%	0.032%	0.0012%	–	> 0.01%
CC(C)C(=Nc1ccc([N+](=O)[O-])cc1)OCc1coc(Cc2ccccc2)c1 [Compound 539]	22 µg	> 0.05%	–	> 0.1%	> 0.1%	> 0.05%	> 0.01%
CC(C)C(=Nc1ccc2c(c1)OCO2)OCc1ccnc(Oc2ccccc2)c1 [Compound 540]	> 100 µg	> 0.05%	–	> 0.1%	< 0.1%	> 0.05%	> 0.01%
CC(C)C(=Nc1ccc(F)c(Cl)c1)OCc1cccc(Cc2ccccc2)c1 [Compound 541]	< 100 µg	0.004%	–	> 0.1%	0.001%	> 0.05%	> 0.01%
CC(C)C(=Nc1ccc(OC(F)(F)F)cc1)OCc1cccc(Cc2ccccc2)c1 [Compound 542]	> 100 µg	> 0.05%	–	> 0.1%	> 0.01%	> 0.05%	> 0.01%
CC(C)C(=Nc1ccc(C(F)(F)F)cc1)OCc1cccc(Cc2ccccc2)c1 [Compound 543]	< 100 µg	0.003%	–	> 0.1%	0.0008%	< 0.05%	> 0.01%
COCc1c(F)c(F)c(COC(=Nc2ccc(C(C)(C)C)cc2)C(C)C)c(F)c1F [Compound 544]	> 100 µg	0.005%	–	> 0.1%	> 0.1%	> 0.05%	> 0.01%
Cc1cccc(N=C(OCc2cccc(Oc3ccc(Cl)cc3)n2)C(C)C)c1 [Compound 545]	< 100 µg	0.005%	–	> 0.1%	> 0.1%	> 0.05%	> 0.01%
C#CCc1c(F)c(F)c(COC(=Nc2cccc(C(F)(F)F)c2)C(C)C)c(F)c1F [Compound 546]	< 100 µg	0.001%	–	> 0.1%	0.0001%	< 0.05%	0.0032%
C#CCc1c(F)c(F)c(COC(=Nc2ccc3c(c2)OCO3)C(C)C)c(F)c1F [Compound 547]	< 100 µg	0.0006%	–	0.05%	0.0005%	< 0.05%	> 0.01%
CC(C)C(=Nc1cccc(C(F)(F)F)c1)OCC#CCOc1ccccc1 [Compound 548]	> 100 µg	> 0.05%	–	> 0.1%	< 0.1%	> 0.05%	> 0.01%
CC(C)C(=Nc1ccc(F)c(Cl)c1)OCc1cccc(Oc2ccccn2)c1 [Compound 549]	< 100 µg	> 0.05%	–	> 0.1%	> 0.1%	> 0.05%	> 0.01%
